Reference: article PMC5831858, “Pharmacological characterisation of CR6086, a potent prostaglandin E2 receptor 4 antagonist, as a new potential disease-modifying anti-rheumatic drug” (Arthritis Research & Therapy, 2018)
Where two headings read alike, the source gives them in different places.

Legend:
human EP4 receptor = molecular target: T1, human EP4 receptor (Homo sapiens, UniProt P35408); assay: EP4 radioligand binding assay ([^3H]PGE2), human receptor; settings: for Ki: read-out: Ki CR6086
T1 construct: expressed in transfected cells
T1 sequence (P35408 whole entry): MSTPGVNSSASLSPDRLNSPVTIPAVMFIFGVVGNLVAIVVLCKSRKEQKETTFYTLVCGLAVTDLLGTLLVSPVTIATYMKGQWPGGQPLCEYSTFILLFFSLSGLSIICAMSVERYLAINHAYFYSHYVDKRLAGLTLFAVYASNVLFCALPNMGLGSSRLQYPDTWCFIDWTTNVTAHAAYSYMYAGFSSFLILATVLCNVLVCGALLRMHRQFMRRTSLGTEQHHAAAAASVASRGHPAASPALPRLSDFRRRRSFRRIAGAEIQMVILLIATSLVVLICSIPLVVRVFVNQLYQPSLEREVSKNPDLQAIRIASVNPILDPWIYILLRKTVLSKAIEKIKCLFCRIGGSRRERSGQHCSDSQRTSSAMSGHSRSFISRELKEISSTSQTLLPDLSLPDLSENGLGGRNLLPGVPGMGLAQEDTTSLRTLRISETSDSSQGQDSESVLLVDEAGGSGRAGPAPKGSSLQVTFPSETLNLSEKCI
Text: The complementary DNA (cDNA) clone of the human EP4 receptor (hEP4R; NM_000958.2) was obtained from Thermo Fisher Scientific (Ultimate ORF Clone Collection, clone ID IOH46525; Waltham, MA, USA). The coding sequence was subcloned in expression vector pcDNATM6.2/V5-DEST by using Invitrogen Gateway technology (Thermo Fisher Scientific). Human embryonic kidney cells 293 (HEK293) were obtained from the American Type Culture Collection (ATCC; Manassas, VA, USA) and transfected with expression vector for hEP4R according to the method described in the FuGENE 6 Transfection Reagent technical manual (Promega, Madison, WI, USA). The clones overexpressing the protein were selected for Blasticidin S HCl (Thermo Fisher Scientific) resistance. The selected clone was grown in DMEM containing 10% FBS and 10 μg/ml Blasticidin S HCl (selection medium) at 37 °C in a humidified atmosphere of 5% CO2 in air.
Membranes expressing the human EP4 receptor were prepared from stably transfected HEK293 cell line. Cells were grown adherent in DMEM with GlutaMAX-I (Thermo Fisher Scientific) containing 10% FBS and Blasticidin 10 μg/ml at 37 °C in a humidified atmosphere with 5% CO2. Membranes expressing the mouse or rat EP4 receptor were prepared from transiently transfected HEK293 cells. Cells were grown adherent in DMEM with GlutaMAX-I containing 10% FBS at 37 °C in a humidified atmosphere with 5% CO2. For the preparation of all cell membranes, culture medium was aspirated from 150-cm^2 flasks into which cells were seeded. Cell monolayers were then washed with 10 ml of hypotonic lysis buffer (Tris 5 mM + ethylenediaminetetraacetic acid [EDTA] 5 mM, pH 7.4), detached, and lysed with 10 ml + 10 ml of lysis buffer by mechanical scraping. Lysates were vortexed for 30 seconds and centrifuged at 40,000 × g for 22 minutes at 4 °C. Pellets were stored at −80 °C until use. Protein content of the cell membrane suspension was determined using bovine serum albumin (BSA) as a standard.
Experimental procedures were performed according to the method of Abramovitz et al.. [^3H]PGE2 (PerkinElmer, Waltham, MA, USA) binding assays for recombinant EP4 receptors were performed in 10 mM 2-(N-morpholino)ethanesulphonic acid-KOH buffer, pH 6, containing 10 mM MgCl2 and 1 mM CaCl2. Ten micrograms of protein from membrane fractions were incubated in a total volume of 0.1 ml with 1–1.5 nM [^3H]PGE2. To determine the total binding or non-specific binding, 1% dimethyl sulphoxide (DMSO) or 1 μM PGE2 was added to the reaction mixture. Incubation was carried out in 96-well multi-well plates for 90 minutes at room temperature prior to separation of the bound and free radioligand by rapid filtration on glass-fibred filters (UniFilter-96 GF/B; PerkinElmer) pre-soaked in 0.3% polyethylenimine. […] The residual [^3H]PGE2 binding was determined using a solid scintillation counter (TopCount; PerkinElmer) after at least 1 h of stabilisation. In saturation binding studies, isotherm-binding curves generated with six to eight different concentrations of [^3H]PGE2 (from 0.5 to 25 nM) were evaluated. […]
Specific binding to the receptors was defined as the difference between total binding and non-specific binding, as determined in the presence of an excess of unlabelled ligand. Binding isotherm curves were analysed to determine the equilibrium binding parameters, affinity (dissociation constant [Kd]) and maximal binding capacity of labelled ligand. Competition curves were analysed to assess the half-maximal inhibitory concentration (IC50). […]

IL-23 release = IL-23 release from human dendritic cells; assay type: cell-based; settings: Dendritic cell, PGE2-stimulated, 24 h
Protocol: PBMCs were purified using Histopaque (Sigma-Aldrich, St. Louis, MO, USA). CD14^+ cells were positively selected in a magnetic field (magnetic-activated cell sorting [MACS]; Miltenyi Biotec, Bergisch Gladbach, Germany). Purified CD14^+ cells were subsequently cultured for 7 days in differentiation medium (RPMI 1640 + 10% FBS, granulocyte-macrophage colony-stimulating factor 50 ng/ml and IL-4 100 ng/ml) and then stimulated with LPS (10 ng/ml), R848 2.5 μg/ml and PGE2 10 nM for 24 h in the presence of CR6086 (0.01–30 μM) or naproxen (1–30 μM). IL-23 release was measured by enzyme-linked immunosorbent assay (ELISA) (R&D Systems, Minneapolis, MN, USA).

A1 = A1 (Homo sapiens, UniProt P30542); assay: Adenosine receptor A1 binding; settings: [^3H]DPCPX, Human recombinant CHO cells, read-out: CR6086 Activity at 10µM
Sequence of A1 (P30542 whole entry): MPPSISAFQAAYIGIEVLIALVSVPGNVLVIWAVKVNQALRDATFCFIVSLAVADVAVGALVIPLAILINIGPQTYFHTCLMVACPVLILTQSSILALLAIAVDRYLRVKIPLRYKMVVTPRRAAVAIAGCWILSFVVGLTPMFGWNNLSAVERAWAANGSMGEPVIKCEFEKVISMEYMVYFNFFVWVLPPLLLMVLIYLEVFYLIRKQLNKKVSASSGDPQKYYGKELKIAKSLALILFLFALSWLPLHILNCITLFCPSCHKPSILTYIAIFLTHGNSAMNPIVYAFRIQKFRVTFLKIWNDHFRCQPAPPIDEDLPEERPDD

P2Y = assay: Purinergic receptor P2Y binding; settings: [^35S]dATPαS, Rat cerebral cortex
MT1 (ML1A) = MT1 (ML1A) (Homo sapiens, UniProt P48039); assay: MT1 receptor binding; settings: [^125I]2-iodomelatonin, Human recombinant CHO cells, read-out: CR6086 Activity at 10µM
Sequence of MT1 (ML1A) (P48039 whole entry): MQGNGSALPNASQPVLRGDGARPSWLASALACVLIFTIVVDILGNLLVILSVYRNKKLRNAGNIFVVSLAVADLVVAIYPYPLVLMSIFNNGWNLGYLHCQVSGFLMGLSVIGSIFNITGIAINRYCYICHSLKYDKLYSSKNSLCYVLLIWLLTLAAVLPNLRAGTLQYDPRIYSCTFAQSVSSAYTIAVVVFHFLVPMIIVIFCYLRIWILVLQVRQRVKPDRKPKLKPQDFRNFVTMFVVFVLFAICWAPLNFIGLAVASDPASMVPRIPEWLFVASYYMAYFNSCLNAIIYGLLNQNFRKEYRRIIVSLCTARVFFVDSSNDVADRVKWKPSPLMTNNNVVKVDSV

GAL2 = GAL2 (Homo sapiens, UniProt O43603); assay: Galanin receptor GAL2 binding; settings: [^125I]galanin, Human recombinant CHO cells, read-out: CR6086 Activity at 10µM
Sequence of GAL2 (O43603 whole entry): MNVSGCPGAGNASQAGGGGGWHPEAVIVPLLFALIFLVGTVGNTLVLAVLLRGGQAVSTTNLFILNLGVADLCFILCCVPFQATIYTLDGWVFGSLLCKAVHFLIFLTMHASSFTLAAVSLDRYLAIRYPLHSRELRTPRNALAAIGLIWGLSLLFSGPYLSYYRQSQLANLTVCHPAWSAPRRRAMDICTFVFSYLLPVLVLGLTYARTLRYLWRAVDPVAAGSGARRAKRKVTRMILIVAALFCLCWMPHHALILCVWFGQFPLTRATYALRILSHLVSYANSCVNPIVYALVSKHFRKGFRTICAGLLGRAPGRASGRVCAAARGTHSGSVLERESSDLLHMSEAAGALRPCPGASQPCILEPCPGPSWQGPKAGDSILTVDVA

BB (non-selective) = assay: BB receptor (non-selective) binding; settings: [^125I][Tyr^4]bombesin, Rat cerebral cortex
[1] = equilibrium binding, CR6086 50 nM

O=C([O-])c1ccc(C2(NC(=O)[C@H]3CC4(CCN3Cc3ccc(C(F)(F)F)cc3)CC4)CC2)cc1.[Na+] [CR6086, Sodium (R)-4-(1-(6-(4-(trifluoromethyl)benzyl)-6-azaspiro[2.5]octane-5-carboxamido)cyclopropyl)benzoate]
Ki (human EP4 receptor; [^3H]PGE2 displacement, HEK293 membranes, absence of BSA): 0.0166 µM | Ki (human EP4 receptor; after addition of 0.5% BSA in the assay buffer): 0.0155 µM | change in [^3H]PGE2 affinity in the presence of CR6086 (human EP4 receptor; [1]): fourfold decrease | change in maximal binding capacity of [^3H]PGE2 (human EP4 receptor; [1]): +20% | type of antagonism (human EP4 receptor; [1]): competitive antagonist | IC50 (IL-23 release): 0.608 µM | inhibition at 10 µM (A1): < 20% | CR6086 Activity at 10µM (P2Y): IN (IN = < 20% displacement or inhibition (all tables)) | inhibition at 10 µM (MT1 (ML1A)): < 20% | inhibition at 10 µM (GAL2): < 20% | CR6086 Activity at 10µM (BB (non-selective)): IN (IN = < 20% displacement or inhibition (all tables))
